Columns and labels:
βTC-6 cells = assay: Tolbutamide-induced insulin secretion in βTC-6 cells (FIG. 2); format: cell-based
Description: FIG. 2 is a graph showing the effect of Composition A on tolbutamide-induced insulin secretion in βTC-6 cells.
(§1) In order to avoid interference from the natural insulin secretagogue glucose, the effect of Composition A on insulin secretion was studied under glucose-free conditions. The sulfonylurea compound, tolbutamide was used as the insulin secretagogue in the studies of the effect of Composition A on stimulated insulin secretion.
(§2) Insulin assays were performed using the rat insulin assay kit purchased from Crystal Chemists, Inc. (Chicago, Ill., USA). This kit uses a in an Enzyme Linked Immunosorbent Assay (non-competitive sandwich method). The assay was performed according to the manufacturer's protocol. Briefly, the standard or sample (5 μl) diluted with a sample diluent was added to the wells of a multi-well polystyrene plate. The wells were precoated with antiinsulin antibody. After 2 hours of incubation, the wells were thoroughly washed with a washing buffer. A peroxidase-conjugated antiinsulin antibody solution was then added to the well. […] The color was read in an microplate reader using a 405 filter. […]
(§3) The effect of Composition A on tolbutamide-induced insulin secretion in HIT-T15 and βTC-6 cells is shown in […]. […] Samples were measured 1 hour later. […]

HIT-T15 cells = assay: Tolbutamide-induced insulin secretion in HIT-T15 cells (FIG. 3); format: cell-based; details: FIG. 3, tolbutamide alone, 1 hour; without tolbutamide about 0.17
Description: FIG. 3 is a graph showing the effect of Composition A on tolbutamide-induced insulin secretion in HIT-T15 cells.
as §1, §2, §3

## CCCCNC(=O)NS(=O)(=O)c1ccc(C)cc1 [tolbutamide]
βTC-6 cells; FIG. 2, tolbutamide 10 μg/ml alone, 1 hour, without tolbutamide 0.9
  Insulin production with tolbutamide alone: 1.2 ng/ml/mg protein
βTC-6 cells; βTC-6, 1-hour period following glucose deprivation and replacement of the medium
  More insulin secreted by tolbutamide-treated cells than by untreated cells: approximately 30%
HIT-T15 cells
  Insulin secretion with tolbutamide alone: about 0.3 ng/ml/mg protein

From patent US6660309B2, “Antitumor agent” (Biozak, Inc., priority 2001, dated 2003)
